pIC50: −log10 of the molar value.
The compounds below were run against T1, human PAD4 (Homo sapiens, UniProt Q9UM07) (assay: In vitro PAD4 BAEE biochemical assay). Conditions: human PAD4, BAEE substrate; 5 nM PAD4, 2 mM calcium chloride, 3 mM BAEE; geometric mean of multiple experiments.
T1 construct: human PAD4 (NM_012387), A2P663, was PCR amplified; His-SUMO (N, cleaved yes); made in house; host or cells: E. coli BL21(DE3)
Method in brief: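 Ammonia generated from BAEE serves as the readout, measured by o-phthalaldehyde after EDTA termination. Final conditions: 5 nM human PAD4 (SUMO tag cleaved), 2 mM CaCl2, 3 mM BAEE, pH 7.6 MOPS buffer, 25 °C for 2 h following a 30-min compound preincubation.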

T1 sequence (Q9UM07 2-663): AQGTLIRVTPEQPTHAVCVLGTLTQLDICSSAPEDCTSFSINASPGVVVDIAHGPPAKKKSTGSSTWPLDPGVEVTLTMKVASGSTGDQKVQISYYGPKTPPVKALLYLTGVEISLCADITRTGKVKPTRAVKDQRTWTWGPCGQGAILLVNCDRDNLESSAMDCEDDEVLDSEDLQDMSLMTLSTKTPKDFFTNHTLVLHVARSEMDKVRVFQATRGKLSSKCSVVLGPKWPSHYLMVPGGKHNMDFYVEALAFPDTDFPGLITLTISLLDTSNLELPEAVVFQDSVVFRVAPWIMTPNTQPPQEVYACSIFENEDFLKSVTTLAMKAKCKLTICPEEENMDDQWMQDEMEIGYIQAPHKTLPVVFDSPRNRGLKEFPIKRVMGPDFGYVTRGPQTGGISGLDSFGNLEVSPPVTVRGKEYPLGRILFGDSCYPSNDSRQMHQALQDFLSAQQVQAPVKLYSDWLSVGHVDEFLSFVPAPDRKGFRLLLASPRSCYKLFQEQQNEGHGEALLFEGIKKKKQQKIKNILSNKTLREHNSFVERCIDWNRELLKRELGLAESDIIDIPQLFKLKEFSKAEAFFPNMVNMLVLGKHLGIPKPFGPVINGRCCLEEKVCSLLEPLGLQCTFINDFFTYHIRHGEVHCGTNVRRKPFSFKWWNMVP

Structure (SMILES) | pIC50
COc1cc(C(=O)N2[C@H]3CC[C@@H]2[C@H](N)C3)cc2nc(-c3cc4ccc([C@@H](C)N5CCCC5=O)nc4n3CC3CC3)c(C)n12 [Example 276, 1-[(1~{R})-1-[2-[7-[(1~{R},2~{R},4~{S})-2-amino-7-azabicyclo[2.2.1]heptane-7-carbonyl]-5-methoxy-3-methylimidazo [1,2-a]pyridin-2-yl]-1-(cyclopropylmethyl)pyrrolo [2,3-b]pyridin-6-yl]ethyl]pyrrolidin-2-one] | 7.21
CCc1ccc2cc(-c3nc4cc(C(=O)N5CCC[C@@H](N)C5)cc(OC)n4c3C3CCC3)n(CC3CC3)c2n1 [Example 576, [(3~{R})-3-aminopiperidin-1-yl]-[3-cyclobutyl-2-[1-(cyclopropylmethyl)-6-ethylpyrrolo[2,3-b]pyridin-2-yl]-5-methoxyimidazo [1,2-a]pyridin-7-yl]methanone] | 5.67
COc1cc(C(=O)N2[C@H]3CC[C@@H]2[C@H](N)C3)cc2nc(-c3cc4ccc([C@@H](C)Nc5ncc(F)cn5)nc4n3CC3CC3)c(C)n12 [Example 264, [(1~{R},2~{R},4~{S})-2-amino-7-azabicyclo [2.2.1]heptan-7-yl]-[2-[1-(cyclopropylmethyl)-6-[(1~{R})-1-[(5-fluoropyrimidin-2-yl)amino]ethyl]pyrrolo[2,3-b]pyridin-2-yl]-5-methoxy-3-methylimidazo[1,2-a]pyridin-7-yl]methanone] | 6.87
COc1cc(C(=O)N2[C@H]3CC[C@@H]2[C@H](N)C3)cc2nc(-c3cc4ccc([C@@H](C)N5CCNC5=O)nc4n3CC3CC3)c(C)n12 [Example 273, 1-[(1~{R})-1-[2-[7-[(1~{R},2~{R},4~{S})-2-amino-7-azabicyclo[2.2.1]heptane-7-carbonyl]-5-methoxy-3-methylimidazo [1,2-a]pyridin-2-yl]-1-(cyclopropylmethyl)pyrrolo [2,3-b]pyridin-6-yl]ethyl] imidazolidin-2-one] | 7.08
COc1cc(C(=O)N2CCC[C@@H](N)C2)cc2nc(-c3cc4ccc(-c5cccnc5N5CCOCC5)nc4n3CC3CC3)c(C)n12 [Example 606, [(3~{R})-3-aminopiperidin-1-yl]-[2-[1-(cyclopropylmethyl)-6-(2-morpholin-4-ylpyridin-3-yl)pyrrolo[2,3-b]pyridin-2-yl]-5-methoxy-3-methylimidazo[1,2-a]pyridin-7-yl]methanone] | 6.43
CCN(C(=O)OC)c1ccc2cc(-c3nc4cc(C(=O)N5[C@H]6CC[C@@H]5[C@H](N)C6)cc(OC)n4c3C)n(CC3CC3)c2n1 [Example 470, methyl~{N}-[2-[7-[(1~{R},2~{R},4~{S})-2-amino-7-azabicyclo[2.2.1]heptane-7-carbonyl]-5-methoxy-3-methylimidazo [1,2-a]pyridin-2-yl]-1-(cyclopropylmethyl)pyrrolo [2,3-b]pyridin-6-yl]-~{N}-ethylcarbamate] | 6.78
CC[C@H]1CCCS(=O)(=O)N1c1ccc2cc(-c3nc4cc(C(=O)N5[C@H]6CC[C@@H]5[C@H](N)C6)cc(OC)n4c3C)n(CC3CC3)c2n1 [Example 446, [(1~{R},2~{R},4~{S})-2-amino-7-azabicyclo [2.2.1]heptan-7-yl]-[2-[1-(cyclopropylmethyl)-6-[(3~{S})-3-ethyl-1,1-dioxothiazinan-2-yl]pyrrolo[2,3-b]pyridin-2-yl]-5-methoxy-3-methylimidazo[1,2-a]pyridin-7-yl]methanone] | 7.13
CCc1ccc2cc(-c3nc4cc(C(=O)N5CC6(CCCNC6)C5)cc(OC)n4c3C)n(CC3CC3)c2n1 [Example 594, [2-[1-(cyclopropylmethyl)-6-ethylpyrrolo[2,3-b]pyridin-2-yl]-5-methoxy-3-methylimidazo[1,2-a]pyridin-7-yl]-(2,8-diazaspiro[3.5]nonan-2-yl) methanone] | 5.77
COc1cc(C(=O)N2[C@H]3CC[C@@H]2[C@H](N)C3)cc2nc(-c3cc4ccc([C@@H](C)N(C)C(=O)c5ccccc5)nc4n3CC3CC3)c(C)n12 [Example 185, ~{N}-[(1~{R})-1-[2-[7-[(1~{R},2~{R},4~{S})-2-amino-7-azabicyclo[2.2.1]heptane-7-carbonyl]-5-methoxy-3-methylimidazo [1,2-a]pyridin-2-yl]-1-(cyclopropylmethyl)pyrrolo [2,3-b]pyridin-6-yl]ethyl]-~{N}-methylbenzamide] | 6.86
CCOC(=O)CC(C)c1ccc2cc(-c3nc4cc(C(=O)N5[C@H]6CC[C@@H]5[C@H](N)C6)cc(OC)n4c3C)n(CC3CC3)c2n1 (some centres unmarked) [Example 559, ethyl 3-[2-[7-[(1~{R}, 2~{R},4~{S})-2-amino-7-azabicyclo[2.2.1]heptane-7-carbonyl]-5-methoxy-3-methylimidazo[1,2-a]pyridin-2-yl]-1-(cyclopropylmethyl)pyrrolo[2,3-b]pyridin-6-yl]butanoate] | 7.02
COc1cc(C(=O)N2[C@H]3CC[C@@H]2[C@H](N)C3)cc2nc(-c3cc4ccc([C@@H](C)NC(=O)c5ccon5)nc4n3CC3CC3)c(C)n12 [Example 104, ~{N}-[(1~{R})-1-[2-[7-[(1~{R},2~{R},4~{S})-2-amino-7-azabicyclo[2.2.1]heptane-7-carbonyl]-5-methoxy-3-methylimidazo [1,2-a]pyridin-2-yl]-1-(cyclopropylmethyl)pyrrolo [2,3-b]pyridin-6-yl]ethyl]-1,2-oxazole-3-carboxamide] | 7.05
COc1cc(C(=O)N2[C@H]3CC[C@@H]2[C@H](N)C3)cc2nc(-c3cc4ccc([C@@H](C)NC(=O)C5(C#N)CC5)nc4n3CC3CC3)c(C)n12 [Example 165, ~{N}-[(1~{R})-1-[2-[7-[(1~{R},2~{R},4~{S})-2-amino-7-azabicyclo[2.2.1]heptane-7-carbonyl]-5-methoxy-3-methylimidazo [1,2-a]pyridin-2-yl]-1-(cyclopropylmethyl)pyrrolo [2,3-b]pyridin-6-yl]ethyl]-1-cyanocyclopropane-1-carboxamide] | 7.22
COc1cc(C(=O)N2[C@H]3CC[C@@H]2[C@H](N)C3)cc2nc(-c3cc4ccc([C@@H](C)NC(=O)C(C)C(F)(F)F)nc4n3CC3CC3)c(C)n12 (some centres unmarked) [Example 7, ~{N}-[(1~{R})-1-[2-[7-[(1~{R},2~{R},4~{S})-2-amino-7-azabicyclo [2.2.1]heptane-7-carbonyl]-5-methoxy-3-methylimidazo [1,2-a]pyridin-2-yl]-1-(cyclopropylmethyl)pyrrolo[2,3-b]pyridin-6-yl]ethyl]-3,3,3-trifluoro-2-methylpropanamide] | 6.90
COc1cc(C(=O)N2[C@H]3CC[C@@H]2[C@H](N)C3)cc2nc(-c3cc4ccc(C(O)C(F)(F)F)nc4n3CC3CC3)c(C)n12 (some centres unmarked) [Example 569, [(1~{R},2~{R},4~{S})-2-amino-7-azabicyclo [2.2.1]heptan-7-yl]-[2-[1-(cyclopropylmethyl)-6-(2,2,2-trifluoro-1-hydroxyethyl)pyrrolo [2,3-b]pyridin-2-yl]-5-methoxy-3-methylimidazo[1,2-a]pyridin-7-yl]methanone] | 6.84
COc1cc(C(=O)N2[C@H]3CC[C@@H]2[C@H](N)[C@H](OC)C3)cc2nc(-c3cc4ccc([C@@H](C)NC(=O)C56CC(F)(C5)C6)nc4n3CC3CC3)c(C)n12 [Example 183, ~{N}-[(1~{R})-1-[2-[7-[(1~{R},2~{S},3~{R}, 5~{S})-2-amino-3-methoxy-8-azabicyclo [3.2.1]octane-8-carbonyl]-5-methoxy-3-methylimidazo [1,2-a]pyridin-2-yl]-1-(cyclopropylmethyl)pyrrolo [2,3-b]pyridin-6-yl]ethyl]-3-fluorobicyclo[1.1.1]pentane-1-carboxamide] | 6.63
COc1cc(C(=O)N2CCC[C@@H](N)C2)cc2nc(-c3cc4ccc(C(C)(F)F)nc4n3CC3CC3)c(C)n12 [Example 596, [(3~{R})-3-aminopiperidin-1-yl]-[2-[1-(cyclopropylmethyl)-6-(1,1-difluoroethyl)pyrrolo [2,3-b]pyridin-2-yl]-5-methoxy-3-methylimidazo [1,2-a]pyridin-7-yl] methanone] | 6.00
COc1cc(C(=O)N2[C@@H]3CC[C@@H](N)[C@H]2CC3)cc2nc(-c3cc4ccc(N(C(F)F)S(C)(=O)=O)nc4n3CC3CC3)c(C)n12 [Example 410, ~{N}-[2-[7-[(1~{R},2~{R}, 5~{R})-2-amino-8-azabicyclo[3.2.1]octane-8-carbonyl]-5-methoxy-3-methylimidazo[1,2-a]pyridin-2-yl]-1-(cyclopropylmethyl)pyrrolo [2,3-b]pyridin-6-yl]-~{N}-(difluoromethyl) methanesulfonamide] | 6.63
CCc1ccc2cc(-c3nc4cc(C(=O)N5[C@H]6CC[C@@H]5[C@H](N)C6)cc(OC)n4c3C)[nH]c2n1 [Example 506, [(1~{R},2~{R},4~{S})-2-amino-7-azabicyclo [2.2.1]heptan-7-yl]-[2-(6-ethyl-1~{H}-pyrrolo[2,3-b]pyridin-2-yl)-5-methoxy-3-methylimidazo[1,2-a]pyridin-7-yl]methanone] | 4.37
COc1cc(C(=O)N2[C@H]3CC[C@@H]2[C@H](N)C3)cc2nc(-c3cc4ccc([C@@H](C)NC(=O)CCC(=O)NS(=O)(=O)c5ccccc5)nc4n3CC3CC3)c(C)n12 [Example 156, ~{N}-[(1~{R})-1-[2-[7-[(1~{R},2~{R},4~{S})-2-amino-7-azabicyclo[2.2.1]heptane-7-carbonyl]-5-methoxy-3-methylimidazo [1,2-a]pyridin-2-yl]-1-(cyclopropylmethyl)pyrrolo [2,3-b]pyridin-6-yl]ethyl]-~{N}′-(benzenesulfonyl) butanediamide] | 7.69
CS(=O)(=O)N(c1ccc2cc(-c3nc4cc(C(=O)N5[C@H]6CC[C@@H]5[C@H](N)C6)ccn4c3C3CC3)n(CC3CC3)c2n1)C(F)F [Example 386, ~{N}-[2-[7-[(1~{R},2~{R}, 4~{S})-2-amino-7-azabicyclo[2.2.1]heptane-7-carbonyl]-3-cyclopropylimidazo [1,2-a]pyridin-2-yl]-1-(cyclopropylmethyl)pyrrolo [2,3-b]pyridin-6-yl]-~{N}-(difluoromethyl) methanesulfonamide] | 6.90

— patent US12240862B2, “Inhibitors of peptidylarginine deiminases” (Gilead Sciences, Inc., priority 2020, dated 2025)
